We go through four compounds from patent publication EP0142057A2, “Thiazoloquinazoline derivatives, their preparation and pharmaceutical compositions containing same” (F. HOFFMANN-LA ROCHE AG, priority 1983, dated 1985).

In assay [1] the test system is antigen-induced bronchoconstriction. In words: In vivo screening procedure for SRS-A synthesis inhibitors in guinea pigs. The conditions noted are these: 10 mg/kg i.v., 1 minute prior to antigen challenge. From the text: Paralyzed, artificially ventilated, actively sensitized guinea pigs are pretreated with indomethacin (to divert the flow of endogenous arachidonic acid through the lipoxygenase pathway), pyrilamine maleate (to block any bronchoconstriction due to released histamine) and propranol (to enhance the sensitivity of the guinea pig bronchoconstriction to SRS-A) prior to challenging the animal with antigen. Under these conditions the resulting antigen-induced bronchoconstriction has been characterized as being attributable to the synthesis and release of SRS-A in the guinea pig lung. Test compounds are initially studies for their inhibitory properties in this test system by the intravenous route (at 10 mg/kg) given 1 minute prior to antigen challenge.

The target in the next assay is T1, TXA2 synthase (Homo sapiens, UniProt P24557).
T1 construct: using microsomal fractions from human platelets as enzyme source; from tissue; host or cells: human platelets (microsomal fraction)
T1 sequence (P24557 1-533): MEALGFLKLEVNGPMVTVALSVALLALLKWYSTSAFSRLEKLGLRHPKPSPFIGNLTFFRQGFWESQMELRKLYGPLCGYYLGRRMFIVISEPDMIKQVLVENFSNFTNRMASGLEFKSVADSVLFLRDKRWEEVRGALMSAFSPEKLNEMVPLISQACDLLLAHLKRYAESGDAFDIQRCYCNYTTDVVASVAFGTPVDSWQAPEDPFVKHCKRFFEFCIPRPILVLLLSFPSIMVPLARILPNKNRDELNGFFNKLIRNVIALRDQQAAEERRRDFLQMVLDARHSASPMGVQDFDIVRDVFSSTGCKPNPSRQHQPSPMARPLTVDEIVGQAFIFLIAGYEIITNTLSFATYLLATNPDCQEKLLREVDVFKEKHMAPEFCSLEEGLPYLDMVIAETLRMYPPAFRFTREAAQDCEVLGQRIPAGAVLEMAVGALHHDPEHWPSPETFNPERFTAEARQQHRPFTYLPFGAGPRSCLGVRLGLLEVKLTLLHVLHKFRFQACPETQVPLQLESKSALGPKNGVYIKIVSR
In words: Thromboxane synthase inhibition, in vitro. The class given is biochemical. The conditions noted are these: at 10^-7M; microsomal fractions from human platelets; read-out: TXA2Synthase Inhibition (% at 10^-7M). The method, then:
TXA2 synthase activity is measured by following the conversion of ^14C-prostaglandin endoperoxide (PGH2) to ^14C-thromboxane A2 (TXA2) using microsomal fractions from human platelets as enzyme source. In the aqueous incubation medium, the TXA2 decomposes rapidly into TXB2. The amount of TXA2 synthase is adjusted so that under the conditions of the assay approximately 80-90% of the substrate, PGH2, is converted to product in control tubes. To prepare ^14C-PGH2, ^14C-AA (50-60 mCi/mmole: Rose Chem.) is incubated with sheep seminal vesicular gland microsomes for 1.5 minutes at 37°C and then the ^14C-PGH2 is extracted with diethylether, purified on columns of Sephadex LH-20 or silicic acid, and stored in acetone at -70°C. Incubations are done as follows. Sufficient ^14C-PGH2 to yield a final substrate concentration of 10 µM (30,000 cpm) is added to the incubation tubes and then the acetone is removed under nitrogen. The tubes are placed in an ice bath and then 215 1 of ice cold phosphate buffered saline, 10 1 of ethanol (control) or of test drug in ethanol, and 25 1 of the microsomal suspension are added with mixing in that order as rapidly as possible. The tubes are incubated at 22°C for 2 minutes, the reaction is stopped and then the radioactive products and the uncoverted PGH2 are extracted and analyzed by thin layer chromatography. […] The amount of ^14C-PGH2 converted to products was used as a measure of TXA2 synthase activity. Inhibitors were tested initially at a final concentration of 100 µM. Results obtained with representative compounds of the present invention in this assay are summarized hereafter in Table I.

Regarding `CC(C)c1ccc2nc3sc(C(=O)NCCCCc4ccccn4)cn3c(=O)c2c1` [Example 11], the “inhibition of the bronchoconstriction” value in assay [1] is given as 44%.
On to `CC(C)c1ccc2nc3sc(C(=O)NCCCCc4cccnc4)cn3c(=O)c2c1` [the 1st table, row 4, 7-(1-Methylethyl)-5-oxo-N-[4-(3-pyridinyl)butyl]-5H-thiazolo[2,3-b]quinazoline-2-carboxamide], for which the inhibition at 0.1 µM at TXA2 synthase came out at 73%.
Still for that read-out and setting: the figure for `CC(C)c1cc(C(C)C)c2nc3sc(C(=O)NCCCCc4cccnc4)cn3c(=O)c2c1` [the 1st table, row 5, 7,9-bis(1-methylethyl)-5-oxo-N-[4-(3-pyridinyl)butyl]-5H-thiazolo[2,3-b]quinazoline-2-carboxamide] is 63%; for `CC(C)c1ccc2nc3sc(C(=O)NCCCCn4ccnc4)cn3c(=O)c2c1` [the 1st table, row 8] it is 67%.

One may read the inhibition as the relative decrease from the control value, in per cent.
